Laboratory results reported in US20180338980A1, “AROMATIC SULFONAMIDE DERIVATIVES” (BAYER PHARMA AKTIENGESELLSCHAFT, priority 2015, published 2018).

Key:
Format in all cases: cell-based
mouse P2X4 receptors = molecular target: T1, mouse P2X4 receptors (Mus musculus, UniProt Q9JJX6); assay: Assay B: mouse P2X4 receptor cell line, Fluo8 fluorescence FLIPR (agonist Bz-ATP at EC50); settings: HEK mouse P2X4 cell line, agonist Bz-ATP at EC50, average
T1 construct: host or cells: HEK 293 (recombinant, constitutively expressing)
T1 sequence (Q9JJX6 1-388): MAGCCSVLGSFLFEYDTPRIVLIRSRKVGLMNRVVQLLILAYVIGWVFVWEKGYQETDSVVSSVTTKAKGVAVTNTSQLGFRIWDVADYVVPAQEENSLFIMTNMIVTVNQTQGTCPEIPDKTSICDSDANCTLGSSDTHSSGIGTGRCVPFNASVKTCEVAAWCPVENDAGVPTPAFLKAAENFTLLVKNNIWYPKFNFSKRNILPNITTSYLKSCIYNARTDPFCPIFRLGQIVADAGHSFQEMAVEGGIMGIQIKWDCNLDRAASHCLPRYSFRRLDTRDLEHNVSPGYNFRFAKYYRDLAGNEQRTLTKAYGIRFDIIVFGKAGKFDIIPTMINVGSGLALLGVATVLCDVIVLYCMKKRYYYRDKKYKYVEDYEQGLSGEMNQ
Description: The identification of agonists and antagonists of the P2X4 receptor from humans and […] also the quantification of the activity of the compounds of the invention was performed by use of recombinant cell lines. […] The test cell lines constitutively express the mouse or human P2X4 receptors. Stimulation of the receptors with an agonist leads to a conformational change of P2X4 and influx of extracellular calcium ions through the ion channel. The cytoplasmatic calcium transient is detected via the calcium sensitive dye Fluo8 for the mouse P2×4 cell line or in case of the human P2×4 cell line a stably expressed calcium-sensitive photoprotein, mitochondrial photina, which, after reconstitution with the cofactor coelenterazine, emits light in dependence of calcium binding [Bovolenta S, Foti M, Lohmer S, Corazza S., J Biomol Screen. […] The strength of Fluo8 fluorescence signal or photina luminescence signal corresponds to the level of receptor activation. An inhibitor would decrease the signal depending on its potency and concentration.
On the day of the assay medium is exchanged by Fluo8 containing buffer for 30 minutes. In the fluorescence reader (FLIPR) test substances in various concentrations are added for 10 minutes. After baseline measurement the agonist Bz-ATP at EC50 concentration is applied and fluorescence is measured immediately.

P2X4 [1] = molecular target: T2, P2X4 (Homo sapiens, UniProt Q99571); assay: Assay B: human P2X4 receptor cell line, mitochondrial photina luminescence (agonist Bz-ATP at EC50); parameters: host or cells: HEK 293 (recombinant, constitutively expressing; with mitochondrial photina in Assay B); settings: HEK human P2X4 cell line, photina luminescence, agonist Bz-ATP at EC50, average; for Emax: read-out: human P2X4 Assay B avg Efficacy
T2 sequence (Q99571 1-388): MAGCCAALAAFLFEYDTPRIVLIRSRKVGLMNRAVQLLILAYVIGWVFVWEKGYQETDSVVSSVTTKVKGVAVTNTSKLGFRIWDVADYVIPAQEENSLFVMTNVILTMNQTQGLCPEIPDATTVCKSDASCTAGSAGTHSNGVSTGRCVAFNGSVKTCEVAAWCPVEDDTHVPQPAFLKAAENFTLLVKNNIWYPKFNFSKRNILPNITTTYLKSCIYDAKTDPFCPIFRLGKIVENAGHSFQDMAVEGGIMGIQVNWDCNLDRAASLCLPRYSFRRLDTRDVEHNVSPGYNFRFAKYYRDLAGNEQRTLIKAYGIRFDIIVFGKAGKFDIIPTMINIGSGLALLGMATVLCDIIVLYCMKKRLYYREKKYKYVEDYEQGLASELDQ
Summary of the method: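 Bz-ATP at its EC50 activates human P2X4 stably expressed in a cell line that also carries the calcium-sensitive photoprotein mitochondrial photina (coelenterazine cofactor). Light emitted on calcium influx is measured straight away in a luminometer. Reduced luminescence indicates antagonism.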

P2X4 [2] = molecular target: T2, P2X4; assay: Assay A: human P2X4 receptor cell line, FLIPR calcium assay (Fluo-8, agonist Bz-ATP at EC80); parameters: host or cells: HEK 293 (recombinant, constitutively expressing; with mitochondrial photina in Assay B); settings: HEK human P2X4 cells, Fluo-8 FLIPR; for IC50: Bz-ATP at EC80, average values; for Emax: percentage of maximal inhibition, read-out: human P2X4 Assay A avg Efficacy
Summary of the method: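 Antagonism read as inhibition of the calcium response to EC80 Bz-ATP, by peak-over-basal Fluo-8 fluorescence over 120 s, normalized to DMSO wells. Human P2X4-HEK cells, dye-loaded 30 min in probenecid-containing HBSS/HEPES pH 7.4, received compound 30 min beforehand at room temperature, 0.5% DMSO final. Triplicates fitted for IC50, maximal inhibition and Hill slope.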

Row | SMILES | IC50 (mouse P2X4 receptors) [nM] | mouse P2X4 Assay B avg Efficacy (mouse P2X4 receptors) [%] | IC50 (P2X4 [1]) [nM] | Emax (P2X4 [1]) [%] | IC50 (P2X4 [2]) [nM] | Emax (P2X4 [2]) [%]
1 | NS(=O)(=O)c1cc(NC(=O)Cc2ccccc2Cl)ccc1Oc1ccccn1 [Example 013, 2-(2-Chlorophenyl)-N-[4-(pyridin-2-yloxy)-3-sulfamoylphenyl]acetamide] | > 16000 | 31 | – | 71 | – | 93
2 | NS(=O)(=O)c1cc(NC(=O)Cc2ccccc2Cl)ccc1Oc1ccccc1 [Example 014, 2-(2-Chlorophenyl)-N-(4-phenoxy-3-sulfamoylphenyl)acetamide] | > 16000 | 25 | – | 70 | – | 85
3 | NS(=O)(=O)c1cc(NC(=O)Cc2cc(F)ccc2Cl)ccc1Oc1cccc(Cl)c1 [Example 099, 2-(2-Chloro-5-fluorophenyl)-N-[4-(3-chlorophenoxy)-3-sulfamoylphenyl]acetamide] | 808 | 67 | 22 | 55 | 168 | 77
4 | NS(=O)(=O)c1cc(NC(=O)Cc2c(Cl)cccc2Cl)ccc1Oc1cccc(Cl)c1 [Example 104, N-[4-(3-Chlorophenoxy)-3-sulfamoylphenyl]-2-(2,6-dichlorophenyl)acetamide] | 604 | 59 | – | 60 | – | 78
5 | NS(=O)(=O)c1cc(NC(=O)Cc2ccccc2Cl)ccc1OCc1ccccc1F [Example 137, 2-(2-Chlorophenyl)-N-{4-[(2-fluorobenzyl)oxy]-3-sulfamoylphenyl}acetamide] | 1750 | 66 | 33 | 98 | 35 | 88
6 | N#Cc1ccc(COc2ccc(NC(=O)Cc3ccccc3Cl)cc2S(N)(=O)=O)cc1 [Example 138, 2-(2-Chlorophenyl)-N-{4-[(4-cyanobenzyl)oxy]-3-sulfamoylphenyl}acetamide] | 9390 | 41 | 27 | 56 | 4 | 67
7 | NS(=O)(=O)c1cc(NC(=O)Cc2ccccc2Cl)ccc1OCc1ccccc1 [Example 141, N-[4-(Benzyloxy)-3-sulfamoylphenyl]-2-(2-chlorophenyl)acetamide] | 1130 | 66 | – | 69 | – | 96
8 | NS(=O)(=O)c1cc(NC(=O)Cc2ccccc2)ccc1OCc1ccccc1 [Example 146, N-[4-(Benzyloxy)-3-sulfamoylphenyl]-2-phenylacetamide] | > 50000 | 7 | 314 | 71 | – | –
9 | CC(C(=O)Nc1ccc(Oc2cccc(Cl)c2)c(S(N)(=O)=O)c1)c1c(F)cccc1Cl (centres unmarked) [Example 258, 2-(2-Chloro-6-fluorophenyl)-N-[4-(3-chlorophenoxy)-3-sulfamoylphenyl]propanamide] | 260 | 52 | – | – | 779 | 76
10 | Cc1cc(NC(=O)Cc2ccccc2)cc(S(N)(=O)=O)c1Oc1cccc(Cl)c1 [Example 271, N-[4-(3-Chlorophenoxy)-3-methyl-5-sulfamoylphenyl]-2-phenylacetamide] | > 16000 | 31 | – | – | 81 | 84
11 | COC(=O)c1ccccc1Oc1ccc(NC(=O)Cc2ccccc2Cl)cc1S(N)(=O)=O [Example 272, Methyl 2-(4-{[(2-chlorophenyl)acetyl]amino}-2-sulfamoylphenoxy)benzoate] | > 16000 | 25 | – | – | 19 | 73
12 | COC(=O)c1ccc(Oc2ccc(NC(=O)Cc3ccccc3Cl)cc2S(N)(=O)=O)cc1 [Example 273, Methyl 4-(4-{[(2-chlorophenyl)acetyl]amino}-2-sulfamoylphenoxy)benzoate] | 149 | 45 | – | – | 18 | 78

Now from value to compound:

Row | IC50 (mouse P2X4 receptors) [nM] | mouse P2X4 Assay B avg Efficacy (mouse P2X4 receptors) [%] | IC50 (P2X4 [1]) [nM] | Emax (P2X4 [1]) [%] | IC50 (P2X4 [2]) [nM] | Emax (P2X4 [2]) [%] | SMILES
13 | 1240 | 44 | 43 | 56 | 20 | 70 | NS(=O)(=O)c1cc(NC(=O)Cc2ccccc2Cl)ccc1Oc1ccc(F)cc1 [Example 012, 2-(2-chlorophenyl)-N-[4-(4-fluorophenoxy)-3-sulfamoylphenyl]acetamide]
14 | 805 | 44 | 55 | 65 | 61 | 86 | NC(=O)c1cccc(Oc2ccc(NC(=O)Cc3ccccc3Cl)cc2S(N)(=O)=O)c1 [Example 017, 3-(4-{[(2-Chlorophenyl)acetyl]amino}-2-sulfamoylphenoxy)benzamide]
15 | > 50000 | 15 | 68 | 79 | 106 | 81 | NS(=O)(=O)c1cc(NC(=O)Cc2ccccc2Cl)ccc1Oc1cnc(Cl)c(Cl)c1 [Example 036, 2-(2-Chlorophenyl)-N-{4-[(5,6-dichloropyridin-3-yl)oxy]-3-sulfamoylphenyl}acetamide]
16 | > 50000 | 54 | 460 | 90 | 241 | 89 | NS(=O)(=O)c1cc(NC(=O)Cc2ccccc2Cl)ccc1Oc1ccc(-n2ccnc2)cc1 [Example 042, 2-(2-Chlorophenyl)-N-{4-[4-(1H-imidazol-1-yl)phenoxy]-3-sulfamoylphenyl}acetamide]
17 | 387 | 69 | 25 | 57 | 7 | 95 | NS(=O)(=O)c1cc(NC(=O)Cc2cccc(F)c2Cl)ccc1Oc1cccc(Cl)c1 [Example 098, 2-(2-Chloro-3-fluorophenyl)-N-[4-(3-chlorophenoxy)-3-sulfamoylphenyl]acetamide]
18 | 612 | 52 | 43 | 63 | 26 | 82 | NS(=O)(=O)c1cc(NC(=O)Cc2ccccc2Cl)ccc1OCc1cccc(Cl)c1 [Example 139, N-{4-[(3-Chlorobenzyl)oxy]-3-sulfamoylphenyl}-2-(2-chlorophenyl)acetamide]
19 | > 16000 | 22 | 567 | 77 | – | – | NS(=O)(=O)c1cc(NC(=O)Cc2ccccn2)ccc1Oc1cccc(Cl)c1 [Example 185, N-[4-(3-Chlorophenoxy)-3-sulfamoylphenyl]-2-(pyridin-2-yl)acetamide]
20 | 1240 | 44 | – | – | 104 | 94 | Cc1cc(NC(=O)Cc2ccccc2Cl)cc(S(N)(=O)=O)c1Oc1cccc(Cl)c1 [Example 270, N-[4-(3-Chlorophenoxy)-3-methyl-5-sulfamoylphenyl]-2-(2-chlorophenyl)acetamide]
